Data: PubChem BioAssay (NCI)
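GI50 = concentration required for 50% inhibition of growth. TGI is the concentration that stops growth completely.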

Legend:
Assay in all cases: growth of human tumour cells (NCI), 384-well format; in the data active = GI50 below about 0.43 µM; inactive = the rest
RPMI-8226 leukemia = tested on: RPMI-8226 leukemia
A549 NSCLC = tested on: A549 NSCLC
OVCAR-4 ovarian = tested on: OVCAR-4 ovarian
SR leukemia = tested on: SR leukemia
LOX IMVI melanoma = tested on: LOX IMVI melanoma
MCF7 breast = tested on: MCF7 breast
UACC-62 melanoma = tested on: UACC-62 melanoma
HOP-62 NSCLC = tested on: HOP-62 NSCLC
NCI-H226 lung = tested on: NCI-H226 lung
SNB-75 CNS = tested on: SNB-75 CNS
NCI-H522 lung = tested on: NCI-H522 lung
M14 melanoma = tested on: M14 melanoma
NCI/ADR-RES ovarian = tested on: NCI/ADR-RES ovarian
T-47D breast = tested on: T-47D breast
MDA-MB-468 breast = tested on: MDA-MB-468 breast
MDA-MB-231 breast = tested on: MDA-MB-231 breast
A498 renal = tested on: A498 renal
HOP-92 NSCLC = tested on: HOP-92 NSCLC
SK-MEL-28 melanoma = tested on: SK-MEL-28 melanoma
EKVX NSCLC = tested on: EKVX NSCLC
OVCAR-5 ovarian = tested on: OVCAR-5 ovarian
SF-295 CNS = tested on: SF-295 CNS
MDA-MB-435 melanoma = tested on: MDA-MB-435 melanoma
COLO 205 colon = tested on: COLO 205 colon
NCI-H322M lung = tested on: NCI-H322M lung
OVCAR-3 ovarian = tested on: OVCAR-3 ovarian
UACC-257 melanoma = tested on: UACC-257 melanoma
RXF 393 renal = tested on: RXF 393 renal
MOLT-4 leukemia = tested on: MOLT-4 leukemia
TK-10 renal = tested on: TK-10 renal
SF-539 CNS = tested on: SF-539 CNS
HCC-2998 colon = tested on: HCC-2998 colon
SK-MEL-5 melanoma = tested on: SK-MEL-5 melanoma
SN12C renal = tested on: SN12C renal
HCT-116 colon = tested on: HCT-116 colon
BT-549 breast = tested on: BT-549 breast
KM12 colon = tested on: KM12 colon
MALME-3M melanoma = tested on: MALME-3M melanoma
HL-60(TB) leukemia = tested on: HL-60(TB) leukemia
SNB-19 CNS = tested on: SNB-19 CNS
DU-145 prostate = tested on: DU-145 prostate
ACHN renal = tested on: ACHN renal
NCI-H23 lung = tested on: NCI-H23 lung
IGROV1 ovarian = tested on: IGROV1 ovarian
HCT-15 colon = tested on: HCT-15 colon
SF-268 CNS = tested on: SF-268 CNS
U251 glioblastoma = tested on: U251 glioblastoma
NCI-H460 NSCLC = tested on: NCI-H460 NSCLC
PC-3 prostate = tested on: PC-3 prostate
OVCAR-8 ovarian = tested on: OVCAR-8 ovarian
CAKI-1 renal = tested on: CAKI-1 renal
CCRF-CEM leukemia = tested on: CCRF-CEM leukemia
HS 578T breast = tested on: HS 578T breast
SK-OV-3 ovarian = tested on: SK-OV-3 ovarian
786-0 renal = tested on: 786-0 renal
UO-31 renal = tested on: UO-31 renal
HT29 colon = tested on: HT29 colon
SW-620 colon = tested on: SW-620 colon

CCNC(=O)C[C@@H]1N=C(c2ccc(Cl)cc2)c2cc(OC)ccc2-n2c(C)nnc21
55.2 µM: TGI (M14 melanoma)
15 µM: TGI (HCT-15 colon)
> 100 µM: TGI (A549 NSCLC) | TGI (MCF7 breast) | TGI (UACC-62 melanoma) | TGI (SNB-75 CNS) | TGI (T-47D breast) | TGI (MDA-MB-468 breast) | TGI (MDA-MB-231 breast) | TGI (HOP-92 NSCLC) | TGI (SK-MEL-28 melanoma) | TGI (EKVX NSCLC) | TGI (SF-295 CNS) | TGI (RXF 393 renal) | TGI (SF-539 CNS) | TGI (SN12C renal) | TGI (HCT-116 colon) | TGI (KM12 colon) | TGI (SNB-19 CNS) | TGI (DU-145 prostate) | TGI (ACHN renal) | TGI (NCI-H23 lung) | TGI (SF-268 CNS) | TGI (U251 glioblastoma) | TGI (NCI-H460 NSCLC) | TGI (PC-3 prostate)
active: GI50 (RPMI-8226 leukemia) 0.0747 µM | GI50 (OVCAR-4 ovarian) 0.137 µM | GI50 (SR leukemia) < 0.01 µM | GI50 (LOX IMVI melanoma) 0.196 µM | GI50 (MCF7 breast) < 0.01 µM | GI50 (UACC-62 melanoma) < 0.01 µM | GI50 (HOP-62 NSCLC) 0.246 µM | GI50 (NCI-H522 lung) 0.213 µM | GI50 (OVCAR-5 ovarian) 0.296 µM | GI50 (OVCAR-3 ovarian) 0.324 µM | GI50 (UACC-257 melanoma) 0.423 µM | GI50 (HCC-2998 colon) 0.0861 µM | GI50 (BT-549 breast) 0.375 µM | GI50 (HL-60(TB) leukemia) 0.0257 µM | GI50 (IGROV1 ovarian) 0.394 µM
77.6 µM: TGI (MDA-MB-435 melanoma)
0.131 µM: TGI (HL-60(TB) leukemia)
0.551 µM: TGI (LOX IMVI melanoma)
13.8 µM: TGI (HOP-62 NSCLC)
0.899 µM: TGI (OVCAR-4 ovarian)
23.3 µM: TGI (BT-549 breast)
15.6 µM: TGI (COLO 205 colon)
10.8 µM: TGI (HCC-2998 colon)
28.6 µM: TGI (TK-10 renal)
65.9 µM: TGI (MALME-3M melanoma)
16.7 µM: TGI (IGROV1 ovarian)
18.2 µM: TGI (SK-MEL-5 melanoma)
36.2 µM: TGI (NCI/ADR-RES ovarian)
inactive: GI50 (A549 NSCLC) 7.42 µM | GI50 (NCI-H226 lung) 1.63 µM | GI50 (SNB-75 CNS) 28.3 µM | GI50 (M14 melanoma) 2.35 µM | GI50 (NCI/ADR-RES ovarian) 11.4 µM | GI50 (T-47D breast) 15.4 µM | GI50 (MDA-MB-468 breast) 8.18 µM | GI50 (MDA-MB-231 breast) 5.87 µM | GI50 (A498 renal) 0.662 µM | GI50 (HOP-92 NSCLC) 26.4 µM | GI50 (SK-MEL-28 melanoma) 14.1 µM | GI50 (EKVX NSCLC) 25.4 µM | GI50 (SF-295 CNS) 21.6 µM | GI50 (MDA-MB-435 melanoma) 8.67 µM | GI50 (COLO 205 colon) 0.496 µM | GI50 (NCI-H322M lung) 0.62 µM | GI50 (RXF 393 renal) 26 µM | GI50 (MOLT-4 leukemia) 0.599 µM | GI50 (TK-10 renal) 0.48 µM | GI50 (SF-539 CNS) 2.25 µM | GI50 (SK-MEL-5 melanoma) 0.492 µM | GI50 (SN12C renal) 0.742 µM | GI50 (HCT-116 colon) 4.23 µM | GI50 (KM12 colon) 5.56 µM | GI50 (MALME-3M melanoma) 12.3 µM | GI50 (SNB-19 CNS) 1.63 µM | GI50 (DU-145 prostate) 12.8 µM | GI50 (ACHN renal) 3.55 µM | GI50 (NCI-H23 lung) 2.77 µM | GI50 (HCT-15 colon) 0.613 µM | GI50 (SF-268 CNS) 22.5 µM | GI50 (U251 glioblastoma) 9.26 µM | GI50 (NCI-H460 NSCLC) 4.05 µM | GI50 (PC-3 prostate) 0.714 µM
15.7 µM: TGI (MOLT-4 leukemia)
0.992 µM: TGI (RPMI-8226 leukemia)
81.7 µM: TGI (A498 renal)
34.6 µM: TGI (NCI-H322M lung)
5.39 µM: TGI (NCI-H522 lung)
18.7 µM: TGI (OVCAR-5 ovarian)
58 µM: TGI (SR leukemia)
27.7 µM: TGI (NCI-H226 lung)
14.8 µM: TGI (OVCAR-3 ovarian)
30.3 µM: TGI (UACC-257 melanoma)

CS(=O)(=O)c1ccc(Oc2cc(F)cc(C#N)c2)c2c1[C@H](O)[C@H](F)[C@@H]2F
> 100 µM: TGI (RPMI-8226 leukemia) | TGI (OVCAR-8 ovarian) | TGI (A549 NSCLC) | TGI (OVCAR-4 ovarian) | TGI (SR leukemia) | TGI (LOX IMVI melanoma) | TGI (MCF7 breast) | TGI (UACC-62 melanoma) | TGI (HOP-62 NSCLC) | TGI (NCI-H226 lung) | TGI (SNB-75 CNS) | TGI (NCI-H522 lung) | TGI (M14 melanoma) | TGI (NCI/ADR-RES ovarian) | TGI (T-47D breast) | TGI (MDA-MB-468 breast) | TGI (MDA-MB-231 breast) | TGI (A498 renal) | TGI (HOP-92 NSCLC) | TGI (SK-MEL-28 melanoma) | TGI (EKVX NSCLC) | TGI (CAKI-1 renal) | TGI (OVCAR-5 ovarian) | TGI (CCRF-CEM leukemia) | TGI (HS 578T breast) | TGI (SF-295 CNS) | TGI (MDA-MB-435 melanoma) | TGI (COLO 205 colon) | TGI (NCI-H322M lung) | TGI (OVCAR-3 ovarian) | TGI (UACC-257 melanoma) | TGI (RXF 393 renal) | TGI (MOLT-4 leukemia) | TGI (SK-OV-3 ovarian) | TGI (786-0 renal) | TGI (TK-10 renal) | TGI (SF-539 CNS) | TGI (HCC-2998 colon) | TGI (SK-MEL-5 melanoma) | TGI (SN12C renal) | TGI (HCT-116 colon) | TGI (BT-549 breast) | TGI (KM12 colon) | TGI (MALME-3M melanoma) | TGI (HL-60(TB) leukemia) | TGI (SNB-19 CNS) | TGI (DU-145 prostate) | TGI (ACHN renal) | TGI (UO-31 renal) | TGI (NCI-H23 lung) | TGI (IGROV1 ovarian) | TGI (HCT-15 colon) | TGI (SF-268 CNS) | TGI (U251 glioblastoma) | TGI (HT29 colon) | TGI (NCI-H460 NSCLC) | TGI (SW-620 colon) | TGI (PC-3 prostate)
inactive: GI50 (RPMI-8226 leukemia) > 100 µM | GI50 (OVCAR-8 ovarian) > 100 µM | GI50 (A549 NSCLC) > 100 µM | GI50 (OVCAR-4 ovarian) > 100 µM | GI50 (SR leukemia) > 100 µM | GI50 (LOX IMVI melanoma) > 100 µM | GI50 (MCF7 breast) > 100 µM | GI50 (UACC-62 melanoma) > 100 µM | GI50 (HOP-62 NSCLC) > 100 µM | GI50 (NCI-H226 lung) > 100 µM | GI50 (SNB-75 CNS) > 100 µM | GI50 (NCI-H522 lung) > 100 µM | GI50 (M14 melanoma) > 100 µM | GI50 (NCI/ADR-RES ovarian) > 100 µM | GI50 (T-47D breast) > 100 µM | GI50 (MDA-MB-468 breast) > 100 µM | GI50 (MDA-MB-231 breast) > 100 µM | GI50 (A498 renal) > 100 µM | GI50 (HOP-92 NSCLC) > 100 µM | GI50 (SK-MEL-28 melanoma) > 100 µM | GI50 (EKVX NSCLC) > 100 µM | GI50 (CAKI-1 renal) > 100 µM | GI50 (OVCAR-5 ovarian) > 100 µM | GI50 (CCRF-CEM leukemia) > 100 µM | GI50 (HS 578T breast) > 100 µM | GI50 (SF-295 CNS) > 100 µM | GI50 (MDA-MB-435 melanoma) > 100 µM | GI50 (COLO 205 colon) > 100 µM | GI50 (NCI-H322M lung) > 100 µM | GI50 (OVCAR-3 ovarian) > 100 µM | GI50 (UACC-257 melanoma) > 100 µM | GI50 (RXF 393 renal) > 100 µM | GI50 (MOLT-4 leukemia) > 100 µM | GI50 (SK-OV-3 ovarian) > 100 µM | GI50 (786-0 renal) > 100 µM | GI50 (TK-10 renal) > 100 µM | GI50 (SF-539 CNS) > 100 µM | GI50 (HCC-2998 colon) > 100 µM | GI50 (SK-MEL-5 melanoma) > 100 µM | GI50 (SN12C renal) > 100 µM | GI50 (HCT-116 colon) > 100 µM | GI50 (BT-549 breast) > 100 µM | GI50 (KM12 colon) > 100 µM | GI50 (MALME-3M melanoma) > 100 µM | GI50 (HL-60(TB) leukemia) > 100 µM | GI50 (SNB-19 CNS) > 100 µM | GI50 (DU-145 prostate) > 100 µM | GI50 (ACHN renal) > 100 µM | GI50 (UO-31 renal) > 100 µM | GI50 (NCI-H23 lung) > 100 µM | GI50 (IGROV1 ovarian) > 100 µM | GI50 (HCT-15 colon) > 100 µM | GI50 (SF-268 CNS) > 100 µM | GI50 (U251 glioblastoma) > 100 µM | GI50 (HT29 colon) > 100 µM | GI50 (NCI-H460 NSCLC) > 100 µM | GI50 (SW-620 colon) > 100 µM | GI50 (PC-3 prostate) > 100 µM
